Experimental findings from patent US11739100B2, “2,3-dihydro-1h-imidazo{1,2-a}pyrimidin-5-one and this 1,2,3,4-tetrahydropyrimido{1,2-a}pyrimidin-6-one derivatives comprising a substituted morpholine, preparation thereof and pharmaceutical use thereof” (SANOFI, priority 2012, dated 2023) are described below.

A value given as a limit tells only on which side of the number the result lay.

This assay concerns the target T1, recombinant Vps34 (Homo sapiens, UniProt Q8NEB9).
T1 construct: purchased Invitrogen PV5126
Briefly: Phosphorylation of phosphatidylinositol (PI) by Vps34 in vitro, ADP detected by TR-FRET (HTRF Transcreener ADP). The format is biochemical. The following applies: 10 μM ATP, 55 μg/ml PI, approximately 3 nM Vps34, 1 hour at ambient temperature; absolute IC50, mean of two independent experiments; read-out: IC50 activity range. On the technique in general: Time-resolved FRET reads energy transfer from a long-lived donor to a nearby acceptor.

T1 sequence (Q8NEB9 whole entry): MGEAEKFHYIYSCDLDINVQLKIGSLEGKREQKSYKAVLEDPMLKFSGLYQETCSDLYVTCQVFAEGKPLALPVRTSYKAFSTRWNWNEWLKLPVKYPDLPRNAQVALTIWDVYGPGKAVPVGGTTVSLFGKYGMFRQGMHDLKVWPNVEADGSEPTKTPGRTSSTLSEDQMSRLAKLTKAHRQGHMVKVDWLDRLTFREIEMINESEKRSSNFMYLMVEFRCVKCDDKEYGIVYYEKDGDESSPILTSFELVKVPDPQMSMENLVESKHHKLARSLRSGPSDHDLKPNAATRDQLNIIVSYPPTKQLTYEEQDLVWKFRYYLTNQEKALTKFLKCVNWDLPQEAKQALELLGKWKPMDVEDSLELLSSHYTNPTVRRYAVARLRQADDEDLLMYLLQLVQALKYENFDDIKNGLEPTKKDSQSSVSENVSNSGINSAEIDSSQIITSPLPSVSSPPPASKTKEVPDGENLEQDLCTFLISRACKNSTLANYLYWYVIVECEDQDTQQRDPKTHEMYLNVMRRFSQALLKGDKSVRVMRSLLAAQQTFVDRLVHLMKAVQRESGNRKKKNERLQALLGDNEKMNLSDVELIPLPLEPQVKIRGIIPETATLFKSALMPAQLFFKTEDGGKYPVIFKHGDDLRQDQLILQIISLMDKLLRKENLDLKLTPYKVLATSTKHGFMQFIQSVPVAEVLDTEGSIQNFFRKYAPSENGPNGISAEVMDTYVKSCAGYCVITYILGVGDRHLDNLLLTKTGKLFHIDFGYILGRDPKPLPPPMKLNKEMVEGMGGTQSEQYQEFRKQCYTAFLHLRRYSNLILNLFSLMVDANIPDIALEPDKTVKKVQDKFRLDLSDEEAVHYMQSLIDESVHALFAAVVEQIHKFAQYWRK

In general, IC50 refers to the concentration that inhibits the measured activity by half. `CCC(=O)CN1c2nc(N3CCOC[C@H]3C)cc(=O)n2CC[C@H]1C(F)(F)F` [Example 16, (S)-2-((R)-3-Methyl-morpholin-4-yl)-9-(2-oxobutyl)-8-trifluoromethyl-6,7,8,9-tetrahydro-pyrimido[1,2-a]-pyrimidin-4-one]: the IC50 is less than 10 nM.

As to `Cc1noc(CN2c3nc(N4CCOC[C@H]4C)cc(=O)n3CC[C@H]2C(F)(F)F)n1` [Example 17, (S)-2-((R)-3-Methyl-morpholin-4-yl)-9-(3-methyl-[1,2,4]oxadiazol-5-yl-methyl)-8-trifluoromethyl-6,7,8,9-tetrahydro-pyrimido[1,2-a]-pyrimidin-4-one], the IC50 is less than 10 nM.

On to `C[C@@H]1COCCN1c1nc2n(c(=O)c1F)CC[C@@H](C(F)(F)F)N2CC(=O)C1CCOCC1` [Example 18, (S)-3-Fluoro-2-((R)-3-methylmorpholin-4-yl)-9-[2-oxo-2-(tetrahydro-pyran-4-yl)ethyl]-8-trifluoromethyl-6,7,8,9-tetrahydro-pyrimido[1,2-a]-pyrimidin-4-one], for which the 50% inhibitory concentration (IC50) was less than 10 nM.

Regarding `Cc1noc(CN2c3nc(N4CCOC[C@H]4C)c(F)c(=O)n3CC[C@H]2C(F)(F)F)n1` [Example 19, (S)-3-Fluoro-2-((R)-3-methylmorpholin-4-yl)-9-(3-methyl-[1,2,4]oxadiazol-5-yl-methyl)-8-trifluoromethyl-6,7,8,9-tetrahydro-pyrimido[1,2-a]-pyrimidin-4-one], the 50% inhibitory concentration (IC50) is less than 10 nM.

Consider `COCCN1c2nc(N3CCOC[C@H]3C)c(F)c(=O)n2CC[C@H]1C(F)(F)F` [Example 20, (S)-3-Fluoro-9-(2-methoxy-ethyl)-2-((R)-3-methylmorpholin-4-yl)-8-trifluoromethyl-6,7,8,9-tetrahydro-pyrimido[1,2-a]-pyrimidin-4-one], for which the IC50 is less than 10 nM.

On to `Cc1nc(CN2CC[C@H](C(F)(F)F)n3c2nc(N2CCOC[C@H]2C)c(F)c3=O)no1` [Example 21, (R)-3-Fluoro-2-((R)-3-methylmorpholin-4-yl)-9-(5-methyl-[1,2,4]oxadiazol-3-yl-methyl)-6-trifluoromethyl-6,7,8,9-tetrahydro-pyrimido[1,2-a]-pyrimidin-4-one], for which the IC50 is less than 10 nM.

Consider `CCC(=O)CN1c2nc(N3CCOC[C@H]3C)c(F)c(=O)n2CC[C@H]1C(F)(F)F` [Example 22, (S)-3-Fluoro-2-((R)-3-methylmorpholin-4-yl)-9-(2-oxobutyl)-8-trifluoromethyl-6,7,8,9-tetrahydro-pyrimido[1,2-a]-pyrimidin-4-one], for which the IC50 was less than 10 nM.

On to `CON(C)C(=O)CN1c2nc(N3CCOC[C@H]3C)c(F)c(=O)n2CC[C@H]1C(F)(F)F` [Example 23, 2-[(S)-7-Fluoro-8-((R)-3-methylmorpholin-4-yl)-6-oxo-2-trifluoromethyl-3,4-dihydro-2H,6H-pyrimido[1,2-a]-pyrimidin-1-yl]-N-methoxy-N-methyl-acetamide], for which the IC50 is less than 10 nM.

With `C[C@@H]1COCCN1c1cc(=O)n2c(n1)N(Cc1ccc(F)nc1)[C@H](C(F)(F)F)CC2` [Example 24, (S)-9-(6-Fluoropyridin-3-ylmethyl)-2-((R)-3-methylmorpholin-4-yl)-8-trifluoromethyl-6,7,8,9-tetrahydro-pyrimido[1,2-a]-pyrimidin-4-one], the half-maximal inhibitory concentration (IC50) was less than 10 nM.

Turning to `C[C@@H]1COCCN1c1cc(=O)n2c(n1)N(CC(=O)c1ccnc(F)c1)[C@H](C(F)(F)F)CC2` [Example 25, (S)-9-[2-(2-Fluoro-pyridin-4-yl)-2-oxo-ethyl]-2-((R)-3-methyl-morpholin-4-yl)-8-trifluoromethyl-6,7,8,9-tetrahydro-pyrimido[1,2-a]-pyrimidin-4-one], the IC50 is less than 10 nM.

For the compound `CCC(=O)CN1CC[C@H](C(F)(F)F)n2c1nc(N1CCOC[C@H]1C)cc2=O` [Example 26, (R)-2-((R)-3-Methyl-morpholin-4-yl)-9-(2-oxobutyl)-6-trifluoromethyl-6,7,8,9-tetrahydro-pyrimido[1,2-a]-pyrimidin-4-one], the IC50 was less than 10 nM.

For `Cc1nc(CN2CC[C@H](C(F)(F)F)n3c2nc(N2CCOC[C@H]2C)cc3=O)no1` [Example 27, (R)-2-((R)-3-Methyl-morpholin-4-yl)-9-(5-methyl-[1,2,4]oxadiazol-3-yl-methyl)-6-trifluoromethyl-6,7,8,9-tetrahydro-pyrimido[1,2-a]-pyrimidin-4-one], the IC50 is less than 10 nM.

In the case of `C[C@@H]1COCCN1c1nc2n(c(=O)c1F)[C@@H](C(F)(F)F)CCN2Cc1nc(C(F)(F)F)no1` [Example 28, (R)-3-Fluoro-2-((R)-3-methylmorpholin-4-yl)-6-trifluoromethyl-9-(3-trifluoromethyl-[1,2,4]oxadiazol-5-yl-methyl)-6,7,8,9-tetrahydro-pyrimido[1,2-a]-pyrimidin-4-one], the concentration for half-maximal inhibition (IC50) was less than 10 nM.

In the case of `CCC(=O)CN1CC[C@H](C(F)(F)F)n2c1nc(N1CCOC[C@H]1C)c(F)c2=O` [Example 29, (R)-3-Fluoro-2-((R)-3-methylmorpholin-4-yl)-9-(2-oxobutyl)-6-trifluoromethyl-6,7,8,9-tetrahydro-pyrimido[1,2-a]-pyrimidin-4-one], the IC50 was less than 10 nM.

Regarding `Cc1nc(CN2c3nc(N4CCOC[C@H]4C)c(F)c(=O)n3C[C@@]2(C)C(F)(F)F)no1` [Example 30, (S)-6-Fluoro-2-methyl-7-((R)-3-methyl-morpholin-4-yl)-1-(5-methyl-[1,2,4]oxadiazol-3-yl-methyl)-2-trifluoromethyl-2,3-dihydro-1H-imidazo[1,2-a]-pyrimidin-5-one], the IC50 is less than 10 nM.

Take `C[C@@H]1COCCN1c1cc(=O)n2c(n1)N(CC(=O)C1CC1)[C@](C)(C(F)(F)F)C2` [Example 31, (S)-1-(2-Cyclopropyl-2-oxoethyl)-2-methyl-7-((R)-3-methyl-morpholin-4-yl)-2-trifluoromethyl-2,3-dihydro-1H-imidazo[1,2-a]-pyrimidin-5-one]: the half-inhibitory concentration (IC50) was less than 10 nM.

For the compound `C[C@@H]1COCCN1c1cc(=O)n2c(n1)N(Cc1ccn(C(F)F)n1)[C@H](C(F)(F)F)CC2` [Example 32, (S)-9-(1-Difluoromethyl-1H-pyrazol-3-ylmethyl)-2-((R)-3-methyl-morpholin-4-yl)-8-trifluoromethyl-6,7,8,9-tetrahydro-pyrimido[1,2-a]-pyrimidin-4-one], the IC50 is less than 10 nM.

Regarding `C[C@@H]1COCCN1c1cc(=O)n2c(n1)N(Cc1ccon1)[C@H](C(F)(F)F)CC2` [Example 33, (S)-9-Isoxazol-3-yl-methyl-2-((R)-3-methylmorpholin-4-yl)-8-trifluoromethyl-6,7,8,9-tetrahydro-pyrimido[1,2-a]-pyrimidin-4-one], the IC50 was less than 10 nM.

With `C[C@@H]1COCCN1c1cc(=O)n2c(n1)N(Cc1cnc(Cl)s1)[C@H](C(F)(F)F)CC2` [Example 34, (S)-9-(2-Chloro-thiazol-5-ylmethyl)-2-((R)-3-methyl-morpholin-4-yl)-8-trifluoromethyl-6,7,8,9-tetrahydro-pyrimido[1,2-a]-pyrimidin-4-one], the IC50 was in the range of 10 to 100 nM.

As for `C[C@@H]1COCCN1c1cc(=O)n2c(n1)N(Cc1ccc(Cl)nc1)[C@H](C(F)(F)F)CC2` [Example 35, (S)-9-(6-Chloro-pyridin-3-ylmethyl)-2-((R)-3-methyl-morpholin-4-yl)-8-trifluoromethyl-6,7,8,9-tetrahydro-pyrimido[1,2-a]-pyrimidin-4-one], the half-maximal inhibitory concentration (IC50) was less than 10 nM.

On to `C[C@@H]1COCCN1c1cc(=O)n2c(n1)N(Cc1ccno1)[C@H](C(F)(F)F)CC2` [Example 36, (S)-9-Isoxazol-5-yl-methyl-2-((R)-3-methylmorpholin-4-yl)-8-trifluoromethyl-6,7,8,9-tetrahydro-pyrimido[1,2-a]-pyrimidin-4-one], for which the IC50 is less than 10 nM.

Take `C[C@@H]1COCCN1c1cc(=O)n2c(n1)N(Cc1ccnn1C(F)F)[C@H](C(F)(F)F)CC2` [Example 37, (S)-9-(2-Difluoromethyl-2H-pyrazol-3-ylmethyl)-2-((R)-3-methyl-morpholin-4-yl)-8-trifluoromethyl-6,7,8,9-tetrahydro-pyrimido[1,2-a]-pyrimidin-4-one]: the concentration for half-maximal inhibition (IC50) was less than 10 nM.

In the case of `C[C@@H]1COCCN1c1nc2n(c(=O)c1F)CC[C@@H](C(F)(F)F)N2CC(=O)c1ccccn1` [Example 38, (S)-3-Fluoro-2-((R)-3-methylmorpholin-4-yl)-9-(2-oxo-2-pyridin-2-ylethyl)-8-trifluoromethyl-6,7,8,9-tetrahydro-pyrimido[1,2-a]-pyrimidin-4-one], the half-maximal inhibitory concentration (IC50) is less than 10 nM.

For the compound `COc1cc(N2c3nc(N4CCOC[C@H]4C)c(F)c(=O)n3CC[C@H]2C(F)(F)F)ccn1` [Example 40, (S)-3-Fluoro-9-(2-methoxypyridin-4-yl)-2-((R)-3-Methyl-morpholin-4-yl)-8-trifluoromethyl-6,7,8,9-tetrahydro-pyrimido[1,2-a]-pyrimidin-4-one], the 50% inhibitory concentration (IC50) was less than 10 nM.

As to `C[C@@H]1COCCN1c1nc2n(c(=O)c1F)CC[C@@H](C(F)(F)F)N2Cc1ccnc(Cl)c1` [Example 41, (S)-9-(2-Chloro-pyridin-4-ylmethyl)-3-fluoro-2-((R)-3-methyl-morpholin-4-yl)-8-trifluoromethyl-6,7,8,9-tetrahydro-pyrimido[1,2-a]-pyrimidin-4-one], the IC50 is less than 10 nM.

As for `C[C@@H]1COCCN1c1nc2n(c(=O)c1F)CC[C@@H](C(F)(F)F)N2Cc1ncco1` [Example 42, (S)-3-Fluoro-2-((R)-3-methylmorpholin-4-yl)-9-oxazol-2-ylmethyl-8-trifluoromethyl-6,7,8,9-tetrahydro-pyrimido[1,2-a]-pyrimidin-4-one], the half-inhibitory concentration (IC50) was less than 10 nM.

For the compound `C[C@@H]1COCCN1c1nc2n(c(=O)c1F)CC[C@@H](C(F)(F)F)N2c1ccc(C2CC2)nc1` [Example 43, (S)-9-(6-Cyclopropyl-pyridin-3-yl)-3-fluoro-2-((R)-3-methyl-morpholin-4-yl)-8-trifluoromethyl-6,7,8,9-tetrahydro-pyrimido[1,2-a]-pyrimidin-4-one], the concentration for half-maximal inhibition (IC50) is less than 10 nM.

`C[C@@H]1COCCN1c1nc2n(c(=O)c1F)CC[C@@H](C(F)(F)F)N2Cc1cocn1` [Example 44, (S)-3-Fluoro-2-((R)-3-methylmorpholin-4-yl)-9-oxazol-4-ylmethyl-8-trifluoromethyl-6,7,8,9-tetrahydro-pyrimido[1,2-a]-pyrimidin-4-one]: the IC50 was less than 10 nM.
